Measured values: patent publication US20240285670A1, “THERAPEUTIC TREATMENT OF TUMORS BY BLOCKING THE HEME SYNTHESIS-EXPORT AXIS” (Università degli Studi di Torino, priority 2021, published 2024)

What was measured:
[1] = tested on: ALAS1; assay: qRT-PCR analysis of ALAS1 expression in C80 cells; format: cell-based, human; details: FLVCR1a-silenced vs scramble shRNA C80 cells
Method: (A) Heme content in Caco2 cells treated with 5 mM 5-ALA (black bars and white bars) or with 5 mM 5-ALA+0.5 mM SA (light grey outlined bars) for the indicated time points. […] Values are expressed as relative fluorescence intensity. Data represent mean±SEM, n=2. For statistical analyses, a two-way analysis of variance was used, followed by the Bonferroni correction for multiple group comparisons; **=p<0.01, ***=p<0.001. 5-ALA, 5-aminolevulinic acid; SA, succinylacetone. (B) Intracellular 5-ALA levels. […] Values are expressed as peak area/μg proteins. Data represent mean±SEM of n=4 wells pooled from two independent experiments. For statistical analyses, an unpaired Student's t-test was used; **=p<0.01. 5-ALA, 5-aminolevulinic acid. (C, D) Accumulation of ^13C2-5-ALA in cells incubated with U-^13C-glucose (C) or of ^13C3-5-ALA in cells incubated with U-^13C-glutamine (D) for the indicated time. […] Values are expressed as peak area/μg proteins. […] Transcript abundance, normalized to beta-actin mRNA expression, is expressed as a fold increase over a calibrator sample. […] Band intensities were measured by densitometry and normalized to vinculin expression. […]
RNA extraction and quantitative real-time PCR analyses were performed as described previously (Destefanis et al., 2019). […] Quantitative real-time PCR (qRT-PCR) was performed using the Universal Probe Library system (Roche, Basel, CH). […]

[2] = tested on: Caco2 cells; assay: Mitochondrial ATP levels in Caco2 cells; format: cell-based, human; details: FLVCR1a-silenced vs scramble shRNA Caco2 cells
Text: (A, C, E) Activities of the mitochondrial electron transport chain complexes I-IV. FLVCR1a-silenced Caco2 (A), SKCO1 (C) or C80 cells (E) are compared to cells expressing a scramble shRNA. Results were expressed as nmol NAD^+/min/mg mitochondrial protein for complex I, nmol reduced cytochrome c/min/mg mitochondrial protein for complexes II-III, nmol oxidized cytochrome c/min/mg mitochondrial protein for complex IV. Data represent mean±SEM, n=3. For statistical analyses, an unpaired Student's t-test was used; *=p<0.05, **=p<0.01. (B, D, F) Mitochondrial ATP levels measured by a bioluminescent assay kit. FLVCR1a-silenced Caco2 (B), SKCO1 (D) or C80 cells (F) are compared to cells expressing a scramble shRNA. Results are expressed as nmol/mg mitochondrial proteins. […] Results were expressed as nmol NAD^+/min/mg mitochondrial protein for complex I, nmol reduced cytochrome c/min/mg mitochondrial protein for complexes II-III, nmol oxidized cytochrome c/min/mg mitochondrial protein for complex IV. […] (H) Mitochondrial ATP levels measured by a bioluminescent assay kit in Caco2 cells overexpressing FLVCR1a (indicated as FLVCR1a+) compared to cells stably transduced with an empty vector. Results are expressed as nmol/mg mitochondrial proteins. […]
ATP levels in mitochondria extracts were assessed by the ATP Bioluminescent Assay Kit (Sigma-Aldrich, St. Louis, MO USA, catalog n° FLAA). […]

FLVCR1a shRNA: shRNA specifically down-regulating FLVCR1a without targeting FLVCR1b; pLKO.1 lentiviral clone TRCN0000059599, antisense SEQ ID No.: 2 (antisense TTGCTAATGATGCTGTACTGG; sense CCAGTACAGCATCATTAGCAA)
ALAS1 expression (qRT-PCR) [1]: reduced ALAS1 expression
ATP levels in mitochondria [2]: significantly higher ATP levels in mitochondria
